Assay results from patent US11524968B2, “Heterocyclic compound as a protein kinase inhibitor” (HK inno.N Corporation, priority 2017, dated 2022).
pIC50: −log10 of the molar value.

The compounds below were run against JAK1 (Homo sapiens (Human), UniProt P23458) (assay: Analysis of JAK1 activity inhibition ability (ADP-Glo Kinase Assay)). Conditions: JAK1 enzyme, ADP-Glo luminescence, ATP 250 uM, IRS-itide substrate, 30° C. 40 minutes; read-out: IC50.
Assay type: biochemical
Outline: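 JAK1 enzyme, IRS-itide substrate (40 ng/mL) and 250 uM ATP, both as prepared in kinase buffer (Tris-HCl pH 7.5, MgCl2, BSA, DTT), reacted with compound 40 min at 30 °C. ADP formed was detected by ADP-Glo luminescence; IC50 is the concentration giving 50% inhibition versus control.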

JAK1, sequence (P23458 whole entry): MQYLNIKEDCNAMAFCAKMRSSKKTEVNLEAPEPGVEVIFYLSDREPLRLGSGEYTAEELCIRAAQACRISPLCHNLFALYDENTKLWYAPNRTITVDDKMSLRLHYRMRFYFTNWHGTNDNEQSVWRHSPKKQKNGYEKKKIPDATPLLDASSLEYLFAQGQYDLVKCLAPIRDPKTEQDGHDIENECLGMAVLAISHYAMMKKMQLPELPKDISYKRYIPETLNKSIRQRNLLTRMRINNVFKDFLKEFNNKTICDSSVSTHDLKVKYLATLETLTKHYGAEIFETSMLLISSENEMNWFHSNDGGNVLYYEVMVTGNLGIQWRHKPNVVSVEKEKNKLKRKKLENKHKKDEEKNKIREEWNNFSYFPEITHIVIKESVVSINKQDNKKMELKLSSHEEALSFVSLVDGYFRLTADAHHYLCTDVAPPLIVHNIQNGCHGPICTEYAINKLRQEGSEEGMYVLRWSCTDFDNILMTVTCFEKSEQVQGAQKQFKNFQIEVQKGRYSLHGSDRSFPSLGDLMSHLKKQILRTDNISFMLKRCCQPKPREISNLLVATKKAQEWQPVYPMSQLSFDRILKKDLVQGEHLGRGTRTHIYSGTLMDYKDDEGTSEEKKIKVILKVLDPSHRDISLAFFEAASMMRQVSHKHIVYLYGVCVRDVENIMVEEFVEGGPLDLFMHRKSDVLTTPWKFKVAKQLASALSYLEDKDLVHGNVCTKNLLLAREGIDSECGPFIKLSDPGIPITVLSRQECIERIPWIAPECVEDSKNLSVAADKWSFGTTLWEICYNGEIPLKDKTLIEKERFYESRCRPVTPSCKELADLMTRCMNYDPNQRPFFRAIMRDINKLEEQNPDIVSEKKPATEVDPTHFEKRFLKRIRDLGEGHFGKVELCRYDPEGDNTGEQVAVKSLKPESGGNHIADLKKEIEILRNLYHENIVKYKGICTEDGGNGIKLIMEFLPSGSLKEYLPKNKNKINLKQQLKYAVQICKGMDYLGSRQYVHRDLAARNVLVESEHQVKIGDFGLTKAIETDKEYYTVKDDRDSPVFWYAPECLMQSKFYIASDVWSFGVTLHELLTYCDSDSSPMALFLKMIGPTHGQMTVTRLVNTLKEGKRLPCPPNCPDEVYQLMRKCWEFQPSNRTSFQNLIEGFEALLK

Row | pIC50 | SMILES
1 | > 7.70 | CCCS(=O)(=O)Nc1cc(F)c(-c2cc(NC(=O)C3CC3)nc3[nH]ccc23)cc1F [Example 84, N-(4-(2,5-difluoro-4-(propylsulfonamido)phenyl)-1H-pyrrolo[2,3-b]pyridin-6-yl)cyclopropanecarboxamide]
2 | > 7.70 | O=C(NCC(F)(F)F)c1ccc(-c2cc(NC(=O)C3CC3)nc3[nH]ccc23)cc1 [Example 524, 4-(6-(cyclopropanecarboxamido)-1H-pyrrolo[2,3-b]pyridin-4-yl)-N-(2,2,2-trifluoroethyl)benzamide]
3 | > 7.70 | CN(C1CC1)S(=O)(=O)Nc1ccc(-c2cc(NC(=O)C3CC3)nc3[nH]ccc23)cc1 [Example 217, N-(4-(4-((N-cyclopropyl-N-methylsulfamoyl)amino)phenyl)-1H-pyrrolo[2,3-b]pyridin-6-yl)cyclopropanecarboxamide]
4 | < 6.70 | COC(=O)c1cc(NS(=O)(=O)CC2(C#N)CC2)ccc1-c1cc(NC(=O)C2CC2)nc2[nH]ccc12 [Example 142, methyl 5-(((1-cyanocyclopropyl)methyl)sulfonamido)-2-(6-(cyclopropanecarboxamido)-1H-pyrrolo[2,3-b]pyridin-4-yl)benzoate]
5 | > 7.70 | CCc1cc(NS(=O)(=O)C2CCC2)ccc1-c1cc(NC(=O)C2CC2)nc2[nH]ccc12 [Example 114, N-(4-(4-(cyclobutanesulfonamido)-2-ethylphenyl)-1H-pyrrolo[2,3-b]pyridin-6-yl)cyclopropanecarboxamide]
6 | < 6.70 | O=C(Nc1ccc(-c2nc(NC(=O)C3CC3)nc3[nH]ccc23)cc1)NC1CC1 [Example 437, N-(4-(4-(3-cyclopropylureido)phenyl)-7H-pyrrolo[2,3-d]pyrimidin-2-yl)cyclopropanecarboxamide]
7 | < 6.70 | O=C(Nc1cc(-c2ccc(NC3CCN(C(=O)c4ccnc(F)c4)CC3)cc2)c2cc[nH]c2n1)C1CC1 [Example 509, N-(4-(4-((1-(2-fluoroisonicotinoyl)piperidin-4-yl)amino)phenyl)-1H-pyrrolo[2,3-b]pyridin-6-yl)cyclopropanecarboxamide]
8 | 6.70 to 7.70 | O=C(Nc1cc(-c2ccc(CC(=O)N3CCOCC3)cc2)c2cc[nH]c2n1)C1CC1 [Example 536, N-(4-(4-(2-morpholino-2-oxoethyl)phenyl)-1H-pyrrolo[2,3-b]pyridin-6-yl)cyclopropanecarboxamide]
9 | > 7.70 | O=C(Nc1cc(-c2ccc(NS(=O)(=O)c3ccc4c(c3)OCO4)cc2)c2cc[nH]c2n1)C1CC1 [Example 34, N-(4-(4-(benzo[d][1,3]dioxole-5-sulfonamido)phenyl)-1H-pyrrolo[2,3-b]pyridin-6-yl)cyclopropanecarboxamide]
10 | 6.70 to 7.70 | O=C(Nc1cc(-c2ccc(NS(=O)(=O)c3ccc(-n4cnnn4)cc3)cc2)c2cc[nH]c2n1)C1CC1 [Example 39, N-(4-(4-((4-(1H-tetrazol-1-yl)phenyl)sulfonamido)phenyl)-1H-pyrrolo[2,3-b]pyridin-6-yl)cyclopropanecarboxamide]
11 | > 7.70 | O=C(Nc1cc(-c2ccc(NS(=O)(=O)c3ccccc3)cc2)c2cc[nH]c2n1)C1CC1 [Example 24, N-(4-(4-(phenylsulfonamido)phenyl)-1H-pyrrolo[2,3-b]pyridin-6-yl)cyclopropanecarboxamide]
12 | < 6.70 | CCCn1ccc2c(-c3ccc(NS(=O)(=O)CC)c(F)c3)cc(NC(=O)C3CC3)nc21 [Example 61, N-(4-(4-(ethylsulfonamido)-3-fluorophenyl)-1-propyl-1H-pyrrolo[2,3-b]pyridin-6-yl)cyclopropanecarboxamide]
13 | > 7.70 | CS(=O)(=O)N1CCN(C(=O)Cc2ccc(-c3cc(NC(=O)C4CC4)nc4[nH]ccc34)cc2)CC1 [Example 542, N-(4-(4-(2-(4-(methylsulfonyl)piperazin-1-yl)-2-oxoethyl)phenyl)-1H-pyrrolo[2,3-b]pyridin-6-yl)cyclopropanecarboxamide]
14 | > 7.70 | O=C(Nc1cc(-c2ccc(NS(=O)(=O)Cc3ccc(F)cc3)cc2)c2cc[nH]c2n1)C1CC1 [Example 36, N-(4-(4-(((4-fluorophenyl)methyl)sulfonamido)phenyl)-1H-pyrrolo[2,3-b]pyridin-6-yl)cyclopropanecarboxamide]
15 | > 7.70 | N#CCCn1ccc(-c2cc(NC(=O)C3CC3)nc3[nH]ccc23)c1 [Example 483, N-(4-(1-(2-cyanoethyl)-1H-pyrrol-3-yl)-1H-pyrrolo[2,3-b]pyridin-6-yl)cyclopropanecarboxamide]
16 | 6.70 to 7.70 | CC1CN(C(=O)c2ccnc3[nH]ccc23)CC=C1c1cc(NC(=O)C2CC2)nc2[nH]ccc12 (centres unmarked) [Example 328, N-(4-(3-methyl-1-(1H-pyrrolo[2,3-b]pyridine-4-carbonyl)-1,2,3,6-tetrahydropyridin-4-yl)-1H-pyrrolo[2,3-b]pyridin-6-yl)cyclopropanecarboxamide]

More lines, now with the values behind:

Row | SMILES | pIC50
17 | COC(=O)C1(C(=O)N2CC=C(c3cc(NC(=O)C4CC4)nc4[nH]ccc34)C(C)C2)CCC1 (centres unmarked) [Example 318, methyl 1-(4-(6-(cyclopropanecarboxamido)-1H-pyrrolo[2,3-b]pyridin-4-yl)-3-methyl-1,2,3,6-tetrahydropyridine-1-carbonyl)cyclobutane-1-carboxylate] | < 6.70
18 | N#CCCN1CC=C(c2cc(NC(=O)C3CC3)nc3[nH]ccc23)C1 [Example 485, N-(4-(1-(2-cyanoethyl)-2,5-dihydro-1H-pyrrol-3-yl)-1H-pyrrolo[2,3-b]pyridin-6-yl)cyclopropanecarboxamide] | 6.70 to 7.70
19 | CC1CN(C(=O)c2ccc3c(c2)OCCO3)CC=C1c1cc(NC(=O)C2CC2)nc2[nH]ccc12 (centres unmarked) [Example 325, N-(4-(1-(2,3-dihydrobenzo[b][1,4]dioxine-6-carbonyl)-3-methyl-1,2,3,6-tetrahydropyridin-4-yl)-1H-pyrrolo[2,3-b]pyridin-6-yl)cyclopropanecarboxamide] | 6.70 to 7.70
20 | CC1CN(C(=O)NCC(F)(F)F)CC=C1c1cc(NC(=O)C2CC2)nc2[nH]ccc12 (centres unmarked) [Example 453, 4-(6-(cyclopropanecarboxamido)-1H-pyrrolo[2,3-b]pyridin-4-yl)-3-methyl-N-(2,2,2-trifluoroethyl)-3,6-dihydropyridine-1 (2H)-carboxamide] | > 7.70
21 | N#CCC(=O)N1CC=C(c2cc(NC(=O)C3CC3)nc3[nH]ccc23)C2(CC2)C1 [Example 303, N-(4-(5-(2-cyanoacetyl)-5-azaspiro[2.5]oct-7-en-8-yl)-1H-pyrrolo[2,3-b]pyridin-6-yl)cyclopropanecarboxamide] | > 7.70
22 | N#CCC(=O)N1CC=C(c2cc(NC(=O)C3CC3)nc3[nH]ccc23)CC1C(F)(F)F (centres unmarked) [Example 393, N-(4-(1-(2-cyanoacetyl)-2-(trifluoromethyl)-1,2,3,6-tetrahydropyridin-4-yl)-1H-pyrrolo[2,3-b]pyridin-6-yl)cyclopropanecarboxamide] | > 7.70
23 | N#CCC1(N2CC=C(c3cc(NC(=O)C4CC4)nc4[nH]ccc34)CC2)CN(C(=O)CC(F)(F)F)C1 [Example 625, N-(4-(1-(3-(cyanomethyl)-1-(3,3,3-trifluoropropanoyl)azetidin-3-yl)-1,2,3,6-tetrahydropyridin-4-yl)-1H-pyrrolo[2,3-b]pyridin-6-yl)cyclopropanecarboxamide] | 6.70 to 7.70
24 | N#CCN1CCC(n2cc(-c3cc(NC(=O)C4CC4)nc4[nH]ccc34)cn2)CC1 [Example 611, N-(4-(1-(1-(cyanomethyl)piperidin-4-yl)-1H-pyrazol-4-yl)-1H-pyrrolo[2,3-b]pyridin-6-yl)cyclopropanecarboxamide] | 6.70 to 7.70
25 | N#CCC(=O)N1C2CCC1CN(c1cc(NC(=O)C3CC3)nc3[nH]ccc13)C2 [Example 677, N-(4-(8-(2-cyanoacetyl)-3,8-diazabicyclo[3.2.1]octan-3-yl)-1H-pyrrolo[2,3-b]pyridin-6-yl)cyclopropanecarboxamide] | > 7.70
26 | O=C(Nc1cc(N2CC3CCC(C2)N3S(=O)(=O)CCCC(F)(F)F)c2cc[nH]c2n1)C1CC1 [Example 666, N-(4-(8-((4,4,4-trifluorobutyl)sulfonyl)-3,8-diazabicyclo[3.2.1]octan-3-yl)-1H-pyrrolo[2,3-b]pyridin-6-yl)cyclopropanecarboxamide] | < 6.70
27 | CC1CN(C(=O)c2ccnc(C(F)(F)F)c2)CC=C1c1cc(NC(=O)C2CC2)nc2[nH]ccc12 (centres unmarked) [Example 384, N-(4-(3-methyl-1-(2-(trifluoromethyl)isonicotinoyl)-1,2,3,6-tetrahydropyridin-4-yl)-1H-pyrrolo[2,3-b]pyridin-6-yl)cyclopropanecarboxamide] | 6.70 to 7.70
28 | O=C(Nc1nc(-c2ccc(CN3CCS(=O)(=O)CC3)cc2)c2nc[nH]c2n1)C1CC1 [Example 592, N-(6-(4-((1,1-dioxidothiomorpholino)methyl)phenyl)-9H-purin-2-yl)cyclopropanecarboxamide] | < 6.70
29 | O=C(Nc1nc(-c2ccc(NS(=O)(=O)N3CCOCC3)cc2)c2nc[nH]c2n1)C1CC1 [Example 238, N-(6-(4-(morpholine-4-sulfonamido)phenyl)-9H-purin-2-yl)cyclopropanecarboxamide] | < 6.70
30 | Cc1ncsc1C(=O)N1CC=C(c2cc(NC(=O)C3CC3)nc3[nH]ccc23)C(C)C1 (centres unmarked) [Example 308, N-(4-(3-methyl-1-(4-methylthiazole-5-carbonyl)-1,2,3,6-tetrahydropyridin-4-yl)-1H-pyrrolo[2,3-b]pyridin-6-yl)cyclopropanecarboxamide] | 6.70 to 7.70
31 | CC[C@@H]1C=C(c2cc(NC(=O)C3CC3)nc3[nH]ccc23)CCN1C(=O)CC#N [Example 416, (R)—N-(4-(1-(2-cyanoacetyl)-6-ethyl-1,2,3,6-tetrahydropyridin-4-yl)-1H-pyrrolo[2,3-b]pyridin-6-yl)cyclopropanecarboxamide] | > 7.70
32 | O=C(Nc1cc(C2=CCN(CC3CC3(F)F)CC2)c2cc[nH]c2n1)C1CC1 (centres unmarked) [Example 489, N-(4-(1-((2,2-difluorocyclopropyl)methyl)-1,2,3,6-tetrahydropyridin-4-yl)-1H-pyrrolo[2,3-b]pyridin-6-yl)cyclopropanecarboxamide] | 6.70 to 7.70
